Laboratory results from publication PMC12481576, “Barbituric Acid Derivatives as Covalent Inhibitors of Leishmania braziliensis Dihydroorotate Dehydrogenase” (Journal of Medicinal Chemistry, 2025).
“And” between values parts separate entries of the source, which are not always exact repeats. Equal values may be shown once. Read-outs that look alike come from different tables or passages of the source.

Assays:
LbDHODH [1] = biological target: T1, LbDHODH (Leishmania braziliensis, UniProt E9AI53); experiment: Kinact/KI determination from LbDHODH progress curves (kobs vs inhibitor concentration); type: biochemical; conditions: for kinact/KI: slope of kobs vs inhibitor concentration
T1 sequence (E9AI53 entry or part of it): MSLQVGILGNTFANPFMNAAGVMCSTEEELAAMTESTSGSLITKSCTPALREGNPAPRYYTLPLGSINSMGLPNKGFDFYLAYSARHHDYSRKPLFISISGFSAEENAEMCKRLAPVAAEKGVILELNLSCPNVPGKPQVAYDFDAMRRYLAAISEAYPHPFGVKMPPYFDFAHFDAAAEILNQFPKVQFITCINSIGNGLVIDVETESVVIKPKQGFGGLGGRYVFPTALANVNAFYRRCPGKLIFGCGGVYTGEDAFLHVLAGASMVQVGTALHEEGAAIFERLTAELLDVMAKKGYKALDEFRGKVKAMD
Text: The Kinact/Ki ratio is a key parameter for evaluating the potency of covalent inhibitors, as it quantitatively measures both their reactivity and affinity for the target enzyme. This parameter integrates two crucial aspects: KI, which reflects the inhibitor’s binding affinity, and Kinact, which describes the rate at which the covalent bond is formed. […] Therefore, this ratio is essential for ranking covalent inhibitors, optimizing their potency, and guiding structure-based drug design.
The experiments were performed in a 96-well microplate reader (SpectraMax Plus 384, Molecular Devices, USA), containing the […] of the buffer 60 mM DCIP, 50 mM Tris pH 8.15, 150 mM KCl, 0.1% Triton X-100, 50 μM DHO and 10 μM of LbDHODH at 165 nM. The reaction was monitored every 3 s at 610 nm over a period of 60 s, in triplicate, for the control and each concentration of the inhibitor. All assays were performed without incubation (0h) and with 4-h preincubation of the inhibitor with LbDHODH, using 5% DMSO (v/v) as control. […] To determine the IC50 values, the activity percentage data were fitted as a function of the concentration logarithm by nonlinear regression analysis (variable hillslope) using Prism 9.0 software (GraphPad Software, USA). […] The resulting kobs values were plotted as a function of inhibitor concentration, and the data in the initial linear region was fit to determine the slope, which is kinact/KI. All regressions were performed with GraphPad Prism 9.

LbDHODH [2] = biological target: T1, LbDHODH; experiment: biochemical; conditions: for IC50: LbDHODH
Method in brief: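 Screened at 100 μM with and without 4-h enzyme preincubation; DCIP reduction during DHO oxidation read at 610 nm every 3 s for 60 s in 50 mM Tris pH 8.15, 150 mM KCl, 0.1% Triton X-100, triplicate, 5% DMSO control. kinact/KI taken as slope of kobs versus inhibitor concentration (initial linear region).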

[3] = for Remarks (mouse microsomal stability study): NCF = no cofactor control; for Raw data: analyte peak area, T=0: 0 min; for Raw data: analyte peak area, T=0 / Raw data: analyte peak area, T=5 / Raw data: analyte peak area, T=10 / Raw data: analyte peak area, T=20 / Raw data: analyte peak area, T=30 / Raw data: analyte peak area, T=60: raw LC-MS area; for Raw data: analyte peak area, T=5: 5 min; for Raw data: analyte peak area, T=10: 10 min; for Raw data: analyte peak area, T=20: 20 min; for Raw data: analyte peak area, T=30: 30 min; for Raw data: analyte peak area, T=60: 60 min
THP-1 cells = experiment: Cell viability / cytotoxicity assay (PrestoBlue, 72 h); type: cell-based; conditions: THP-1 cell line, 72 h, max 200 μM
Method in brief: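 PMA-differentiated THP-1 cells (150 ng/mL PMA, 48 h; then 24 h in fresh medium) were exposed to compounds in serial dilution from 200 μM for 72 h at 37 °C, 5% CO2. Viability was read by PrestoBlue fluorescence (ex 560/em 590 nm) after 2 h.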

in vitro = conditions: microsomes; for microsomal CLint at 1 μM / remaining at 5 min, 1 μM: male, CD1, mouse; for remaining at 5 min, 1 μM / remaining at 10 min, 1 µM / remaining at 20 min, 1 µM / remaining at 0.5 h, 1 µM / remaining at 1 h, 1 µM: pH 7.4, % Remaining; for remaining at 5 min, 1 μM: T=5 min; for remaining at 10 min, 1 µM / remaining at 20 min, 1 µM / remaining at 0.5 h, 1 µM / remaining at 1 h, 1 µM: mouse; for remaining at 10 min, 1 µM: T=10 min; for remaining at 20 min, 1 µM: T=20 min; for remaining at 0.5 h, 1 µM: T=30 min, 30 min; for remaining at 1 h, 1 µM: T=60 min, 60 min
[4] = 0 h, pH 8.15, read-out: LbDHODH Activity±SD (%)
[5] = 4 h, pH 8.15, read-out: LbDHODH Activity±SD (%)
[6] = IC50 0 h, without preincubation
[7] = read-out: Single dose (0h) % activity
[8] = read-out: Single dose (4h) % activity
[9] = mouse liver microsomes, 0.4 mg/ml, 1 µM
[10] = n=1, mouse liver microsomes, n=1
[11] = n=2, mouse liver microsomes, n=2
[12] = mouse liver microsomes, replicate 1 (left block)
[13] = mouse liver microsomes, replicate 2 (right block)

SMILES: O=C1NC(=O)C(=Cc2ccc(O)c([N+](=O)[O-])c2)C(=O)N1 [2d, 5-(4-Hydroxy-3-nitrobenzylidene)pyrimidine-2,4,6(1H,3H,5H)-trione]
- Kobs (LbDHODH [1]; inhibitor 0.18 µM): 0.003357 ± 0.002 s⁻¹
- Kobs (LbDHODH [1]; inhibitor 0.390625 µM): 0.003416 ± 0.002 s⁻¹
- Kobs (LbDHODH [1]; inhibitor 0.78125 µM): 0.003424 ± 0.002 s⁻¹
- Kobs (LbDHODH [1]; inhibitor 1.5625 µM): 0.003613 ± 0.002 s⁻¹
- Kobs (LbDHODH [1]; inhibitor 3.125 µM): 0.0038 ± 0.002 s⁻¹
- Kobs (LbDHODH [1]; inhibitor 6.25 µM): 0.004522 ± 0.002 s⁻¹
- Kobs (LbDHODH [1]; inhibitor 12.5 µM): 0.004748 ± 0.002 s⁻¹
- Kobs (LbDHODH [1]; inhibitor 25 µM): 0.005571 ± 0.002 s⁻¹
- Kobs (LbDHODH [1]; inhibitor 100 µM): 0.01122 ± 0.001 s⁻¹
- Kobs (LbDHODH [1]; inhibitor 200 µM): 0.01796 ± 0.003 s⁻¹
- kinact/KI (LbDHODH [1]): 73 M⁻¹ s⁻¹
- activity at 0.390625 µM (LbDHODH [2]; [4]): 99 ± 9%
- activity at 0.78125 µM (LbDHODH [2]; [4]): 75 ± 6%
- activity at 1.5625 µM (LbDHODH [2]; [4]): 60 ± 5%
- activity at 3.125 µM (LbDHODH [2]; [4]): 46 ± 5%
- activity at 6.25 µM (LbDHODH [2]; [4]): 25 ± 2%
- activity at 12.5 µM (LbDHODH [2]; [4]): 13 ± 1%
- activity at 25 µM (LbDHODH [2]; [4]): 11 ± 3%
- activity at 50 µM (LbDHODH [2]; [4]): 8 ± 1%
- activity at 100 µM (LbDHODH [2]; [4]): 6 ± 1%
- activity at 200 µM (LbDHODH [2]; [4]): 9 ± 4%
- activity at 400 µM (LbDHODH [2]; [4]): 6 ± 2%
- activity at 0.390625 µM (LbDHODH [2]; [5]): 75 ± 7%
- activity at 0.78125 µM (LbDHODH [2]; [5]): 76 ± 8%
- activity at 1.5625 µM (LbDHODH [2]; [5]): 72 ± 11%
- activity at 3.125 µM (LbDHODH [2]; [5]): 71 ± 6%
- activity at 6.25 µM (LbDHODH [2]; [5]): 57 ± 7%
- activity at 12.5 µM (LbDHODH [2]; [5]): 52 ± 6%
- activity at 25 µM (LbDHODH [2]; [5]): 49 ± 7%
- activity at 50 µM (LbDHODH [2]; [5]): 39 ± 7%
- activity at 100 µM (LbDHODH [2]; [5]): 28 ± 3%
- activity at 200 µM (LbDHODH [2]; [5]): 21 ± 8%
- activity at 400 µM (LbDHODH [2]; [5]): 12 ± 4%
- IC50 (LbDHODH [2]; [6]): 3000 ± 1000 nM
- IC50 (LbDHODH [2]; IC50 4 h, 4-h preincubation): 13000 ± 2000 nM
- activity at 100 µM (LbDHODH [2]; [7]): 5 ± 2%
- activity at 100 µM (LbDHODH [2]; [8]): 16 ± 3%
- Remarks (mouse microsomal stability study) [3, 9]: Poor detection sensitivity/Compound might be unstable in assay matrix

SMILES: O=C1NC(=O)C(=C/C=C/c2ccccc2)C(=O)N1 [2i, (E)-5-(3-Phenylallylidene)pyrimidine-2,4,6(1H,3H,5H)-trione]
- CC50 (THP-1 cells): no cytotoxicity
- Kobs (LbDHODH [1]; inhibitor 0.0975 µM): 0.002849 ± 0.002 s⁻¹
- Kobs (LbDHODH [1]; inhibitor 0.195 µM): 0.002994 ± 0.002 s⁻¹
- Kobs (LbDHODH [1]; inhibitor 0.390625 µM): 0.003028 ± 0.002 s⁻¹
- Kobs (LbDHODH [1]; inhibitor 0.78125 µM): 0.003309 ± 0.002 s⁻¹
- Kobs (LbDHODH [1]; inhibitor 1.5625 µM): 0.003849 ± 0.002 s⁻¹
- Kobs (LbDHODH [1]; inhibitor 3.125 µM): 0.005668 ± 0.003 s⁻¹
- Kobs (LbDHODH [1]; inhibitor 6.25 µM): 0.007929 ± 0.002 s⁻¹
- Kobs (LbDHODH [1]; inhibitor 12.5 µM): 0.02055 ± 0.002 s⁻¹
- Kobs (LbDHODH [1]; inhibitor 25 µM): 0.0045 ± 0.002 s⁻¹
- kinact/KI (LbDHODH [1]): 767 M⁻¹ s⁻¹
- activity at 0.0976562 µM (LbDHODH [2]; [4]): 80 ± 11%
- activity at 0.195312 µM (LbDHODH [2]; [4]): 83 ± 14%
- activity at 0.390625 µM (LbDHODH [2]; [4]): 71 ± 17%
- activity at 0.78125 µM (LbDHODH [2]; [4]): 72 ± 12%
- activity at 1.5625 µM (LbDHODH [2]; [4]): 17 ± 4%
- activity at 3.125 µM (LbDHODH [2]; [4]): 11 ± 3%
- activity at 6.25 µM (LbDHODH [2]; [4]): 12 ± 3%
- activity at 12.5 µM (LbDHODH [2]; [4]): 4 ± 1%
- activity at 25 µM (LbDHODH [2]; [4]): 7 ± 3%
- activity at 50 µM (LbDHODH [2]; [4]): 4 ± 1%
- activity at 100 µM (LbDHODH [2]; [4]): 6 ± 1%
- activity at 200 µM (LbDHODH [2]; [4]): 1 ± 0.1%
- activity at 0.0976562 µM (LbDHODH [2]; [5]): 94 ± 19%
- activity at 0.195312 µM (LbDHODH [2]; [5]): 68 ± 11%
- activity at 0.390625 µM (LbDHODH [2]; [5]): 51 ± 9%
- activity at 0.78125 µM (LbDHODH [2]; [5]): 38 ± 9%
- activity at 3.125 µM (LbDHODH [2]; [5]): 10 ± 3%
- activity at 12.5 µM (LbDHODH [2]; [5]): 4 ± 1%
- activity at 50 µM (LbDHODH [2]; [5]): 16 ± 0.5%
- activity at 200 µM (LbDHODH [2]; [5]): 3 ± 0.4%
- IC50 (LbDHODH [2]; [6]): 900 ± 300 nM
- IC50 (LbDHODH [2]; IC50 4 h, 4-h preincubation): 500 ± 100 nM
- activity at 100 µM (LbDHODH [2]; [7]): 1.1 ± 0.2%
- activity at 100 µM (LbDHODH [2]; [8]): 3 ± 2%
- inhibition at 100 µM (LbDHODH [2]; read-out: enzyme inhibition): 97%
- microsomal CLint at 1 μM (in vitro; pH 7.4): > 578 µL/min/mg
- remaining at 5 min, 1 μM (in vitro; [10]): 28.2%
- remaining at 5 min, 1 μM (in vitro; [11]): 28.1%
- microsomal CLint at 1 μM (in vitro; pH 7.4, mouse liver microsomes CLint, app, mouse liver microsomes, NADPH, 1 μM): > 578 µL/min/mg
- remaining at 10 min, 1 µM (in vitro; [10]): 0%
- remaining at 10 min, 1 µM (in vitro; [11]): 0%
- remaining at 20 min, 1 µM (in vitro; [10]): 0%
- remaining at 20 min, 1 µM (in vitro; [11]): 0%
- remaining at 0.5 h, 1 µM (in vitro; [10]): 0%
- remaining at 0.5 h, 1 µM (in vitro; [11]): 0%
- remaining at 1 h, 1 µM (in vitro; [10]): 0%
- remaining at 1 h, 1 µM (in vitro; [11]): 0%
- Calculated T-half (min), Average ([3]; mouse liver microsomes (CD1 male), 0.4 mg/ml protein, test conc 1 µM, average of n=1 and n=2): 2.7 min
- Calculated T-half (min), n=1 ([3]; mouse liver microsomes (CD1 male), 0.4 mg/ml protein, test conc 1 µM, replicate n=1): 2.74 min and 2.7 min
- Calculated T-half (min), n=2 ([3]; mouse liver microsomes (CD1 male), 0.4 mg/ml protein, test conc 1 µM, replicate n=2): 2.73 min and 2.7 min
- Raw data: analyte peak area, T=0 [3, 12]: 4760
- Raw data: analyte peak area, T=0 [3, 13]: 4151
- Modified T-half (min), Average ([3]; mouse liver microsomes, 0.4 mg/ml, 1 µM, average, limited to T Half range 3.00 - […]): <3.0 min
- Remarks (mouse microsomal stability study) [3, 9]: Very fast metabolism; Low NCF
- Raw data: analyte peak area, T=5 [3, 12]: 1438
- Raw data: analyte peak area, T=5 [3, 13]: 1160
- Raw data: analyte peak area, T=10 [3, 12]: 0
- Raw data: analyte peak area, T=10 [3, 13]: 0
- Raw data: analyte peak area, T=20 [3, 12]: 0
- Raw data: analyte peak area, T=20 [3, 13]: 0
- Raw data: analyte peak area, T=30 [3, 12]: 0
- Raw data: analyte peak area, T=30 [3, 13]: 0
- Raw data: analyte peak area, T=60 [3, 12]: 0
- Raw data: analyte peak area, T=60 [3, 13]: 0
- mouse liver microsomes T-half ([3]; mouse liver microsomes, NADPH, 1 μM): <3.0 min
